Measurements published in patent publication US9616047B2, “Inhibitors of beta-catenin in treatment of colorectal cancer” (Regents of the University of Minnesota, priority 2014, dated 2017).

What was measured:
[1] = tested on: β-catenin/Tcf-4 luciferase activity; assay: β-catenin/Tcf-4 luciferase assay of HI-B9 derivatives (cell line not stated); assay type: cell-based; settings: FIG. 6A
Description: (§1) (B) HI-B16 inhibited anchorage-independent growth of colon cancer cells. HCT116, HT29, DLD1 and SW480 were incubated in agar plate with or without HI-B16 and HI-B9. In every case, HI-B16 was better than HI-B9 treatment.
Transient transfection was performed using jetPEI and assays to detect firefly luciferase and Renilla activities according to the manufacturer's manual (Promega). Briefly, cells were seeded onto 10-cm plates and co-transfected with 400 ng of the Renilla luciferase internal control gene and 4 μg of the TOP-flash luciferase reporter construct containing three tandem Tcf consensus binding sites upstream of luciferase cDNA, or the FOPflash luciferase reporter construct, a plasmid with mutated Tcf binding sites. After 16 h of transfection, cells were trypsinized and seeded onto 48-well plates, and cells were treated with respective chemicals for 24 h. Luciferase and Renilla activities were measured using their substrates.

[2] = tested on: HCT116 colon cancer cells; assay: Soft agar assay, anchorage-independent growth, HCT116; assay type: cell-based
Description: (§2) FIG. 2. […] HCT116 and HT-29 colon cancer cells. Colony formation of two cell lines were inhibited by treatment of β-catenin inhibitor candidates. Cells (8×10^3/ml) were incubated with or without HI-B5 or HI-B9 compounds in 1 mL of 0.33% BME agar containing 10% FBS or in 3.5 mL of 0.5% BME agar containing 10% FBS. The cultures were maintained at 37° C. in a 5% CO2 incubator for 7 days, after which the cell colonies were counted under a microscope.
(§3) Cells (8×10^3 per well) suspended in Basal Medium Eagle (BME) supplemented with 10% FBS were added to 0.3% agar with different doses of chemicals in a top layer over a basal layer of 0.6% agar. The cultures were maintained at 37° C. in a 5% CO2 incubator for 2 wk and then colonies were counted under a microscope using the Image-Pro Plus Software (v.4) program (Media Cybernetics).

HT-29 colon cancer cells = assay: Soft agar assay, anchorage-independent growth, HT29; assay type: cell-based
Description: as §2, §3

DLD1 = assay: Soft agar assay, anchorage-independent growth, DLD1; assay type: cell-based
Description: as §1, §3

SW480 = assay: Soft agar assay, anchorage-independent growth, SW480; assay type: cell-based
Description: as §1, §3

colon cancer cells = assay: Proliferation and anchorage-independent growth of colon cancer cells (statements over several lines); assay type: cell-based; settings: every cell line tested: HCT116, HT29, DLD1 and SW480
Description: as §3

β-catenin = assay: Ex vivo pull-down with compound-conjugated Sepharose 4B beads and colon cancer cell lysate: β-catenin; assay type: binding; settings: colon cancer cell lysates; compound-conjugated Sepharose 4B beads
Description: Protein extracts (500 μg) of colon cancer cells were mixed with Sepharose-4B beads (as a negative control) or chemical-conjugated Sepharose 4B beads (100 μl) in reaction buffer. After being washed five times with buffer, the proteins were visualized by Western blot analysis.

[3] = biological target: T1, human β-catenin (126-781 amino acid residues) (Homo sapiens, UniProt P35222); assay: In vitro binding assay with purified β-catenin and compound-conjugated sepharose 4B bead
T1 construct: human β-catenin (126-781 amino acid residues)
T1 sequence (P35222 126-781): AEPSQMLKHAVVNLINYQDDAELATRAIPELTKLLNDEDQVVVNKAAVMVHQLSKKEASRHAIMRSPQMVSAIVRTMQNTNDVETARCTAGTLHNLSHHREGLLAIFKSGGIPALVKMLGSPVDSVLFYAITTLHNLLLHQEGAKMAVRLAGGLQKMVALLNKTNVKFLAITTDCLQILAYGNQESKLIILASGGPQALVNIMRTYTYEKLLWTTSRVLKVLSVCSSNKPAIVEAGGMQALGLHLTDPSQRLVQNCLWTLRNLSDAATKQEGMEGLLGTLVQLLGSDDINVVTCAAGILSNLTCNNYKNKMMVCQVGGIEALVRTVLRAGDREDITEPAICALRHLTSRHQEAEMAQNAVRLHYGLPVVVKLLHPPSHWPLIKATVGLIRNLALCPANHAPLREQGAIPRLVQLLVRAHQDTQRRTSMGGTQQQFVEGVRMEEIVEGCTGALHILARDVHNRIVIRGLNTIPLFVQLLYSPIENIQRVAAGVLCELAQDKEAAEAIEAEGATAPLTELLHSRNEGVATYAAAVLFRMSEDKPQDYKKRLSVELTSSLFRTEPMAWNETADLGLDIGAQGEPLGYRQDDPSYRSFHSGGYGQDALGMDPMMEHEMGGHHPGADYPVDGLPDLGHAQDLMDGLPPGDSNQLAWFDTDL
Description: FIGS. 7A-C. […] 2% of input from each experiments were used to show equal amount of incubated protein (purified or total cell lysates).
Based on the structure of the active compound HI-B9, additional analogs HI-B12, 13, 16, 17 and 20 (FIG. 5) were de novo designed and synthesized. […] 2% of input from each experiments were used to show equal amount of incubated protein (purified or total cell lysates).

c-Myc and cyclin D1 = assay: Western blot analysis of β-catenin/Tcf-4 targets; assay type: cell-based
Description: Proteins from cell lysates were prepared, separated by SDS-PAGE and transferred to Immobilon-P membranes (Millipore Corporation, Billerica, Mass.). Membranes were blocked with 5% nonfat dry milk for 1 h at room temperature and incubated with each of the primary and secondary antibodies. The signal was detected with a chemiluminescence reagent (Amersham).

## O=C(CC1(O)C(=O)Nc2ccc(F)cc21)c1ccc(O)c(C23CC4CC(CC(C4)C2)C3)c1 (centres unmarked) [HI-B16]
[1]
  inhibitory effect in β-catenin/Tcf-4 luciferase assay compared with HI-B9: exerted inhibitory effects better than HI-B9
[1]; concentration not given
  inhibition of luciferase activity: ~90%
[2]
  anchorage-independent growth (colony formation in soft agar): inhibit anchorage-independent growth
HT-29 colon cancer cells
  anchorage-independent growth (colony formation in soft agar): inhibit anchorage-independent growth
DLD1
  anchorage-independent growth (colony formation in soft agar): inhibit anchorage-independent growth
SW480
  anchorage-independent growth (colony formation in soft agar): inhibit anchorage-independent growth
Colon cancer cells
  inhibition of anchorage-independent growth compared with HI-B9 treatment: more effective than HI-B9
β-catenin
  binding to β-catenin (ex vivo pull-down): resulted in HI-B16/β-catenin binding
[3]
  binding of purified β-catenin to compound-conjugated bead (in vitro): bound
c-Myc and cyclin D1
  protein expression of c-Myc and cyclin D1: inhibited cyclin D1 and c-myc expression
  β-catenin and Tcf-4 expression level: not affected
